Measurements reported in publication PMC8811960, “A Novel 2-Carbon-Linked Dimeric Artemisinin With Potent Antileukemic Activity and Favorable Pharmacology” (Frontiers in Oncology, 2022).
Structures can show the parent of a compound that is named as a salt.

Legend:
[1] = tested on: MOLM14, MV4;11, and HL60 human AML cells; design: method as in PMID 33560385; settings: ART631 200 nM, VEN 50 nM, SOR 5 µM; MOLM14, MV4;11, HL60; cited from earlier work
U937 = experiment: alamarBlue growth inhibition, U937; format: cell-based; settings: Homo sapiens, U-937, U937, 48h, mean of 2 independent assays ± SD
Protocol: (§1) Cytotoxicity was assessed using alamarBlue assays (Life Technologies, Grand Island, NY) following manufacturer’s guidelines. Cell death was verified by Annexin V/7-aminoactinomycin D (7AAD) staining (BioLegend, San Diego, CA) per manufacturer’s guidelines.

[2] = as previously reported; cited from earlier work
AML45 PDX = tested on: AML45 PDX; design: method as in PMID 33560385; settings: monotherapy; cited from earlier work
HL60 = experiment: alamarBlue growth inhibition, HL60; format: cell-based; settings: Homo sapiens, HL-60, HL60, 48h, mean of 2 independent assays ± SD
Protocol: as §1

10 human AML cell lines = experiment: alamarBlue growth inhibition, panel of 10 human AML cell lines; format: cell-based
Protocol: as §1
Cell lines with adverse risk cytogenetic and molecular features, e.g. MLL rearrangements (ML2, MOLM14, MV4;11, THP1), FLT3-ITD (MOLM14, MV4;11), TP53 mutations (KG1a, ML2, THP1, U937), and NRAS/KRAS mutations (ML2, THP1), were among those exquisitely sensitive to ART631, with IC50s < 50 nM. The K562 cell line was the only exception, as it was resistant to all 3 of these ARTs. Based on this in vitro activity data combined with the drug stability data described below, ART631 was prioritized over ART576 for further in vitro and in vivo antileukemic efficacy experiments here ( Table 2 ).

TF1 = experiment: alamarBlue growth inhibition, TF1; format: cell-based; settings: Homo sapiens, TF-1, TF1, 48h, mean of 2 independent assays ± SD
Protocol: as §1

DDIT3 = experiment: qRT-PCR for DDIT3 mRNA; format: cell-based, human; settings: MOLM14, 18h, ART631 200 nM, ART838 200 nM, AS 10 uM, similar results in MV4;11 and ML2
Protocol: Cells were pre-treated with […] ROS detection reagent 5-(and 6-)-chloromethyl-2’,7’-dichlorodihydrofluorescein diacetate (CM-H2DCFDA, Life Technologies) for 30 min, followed by the iron chelator deferoxamine mesylate (DFO; 11 mM) for 60 min. Cells were then treated with ART631 (200 nM) or DMSO control for 18h, with subsequent analysis by flow cytometry. Western blotting and quantitative reverse transcription PCR (qRT-PCR) to assess for molecular markers of ROS-mediated apoptosis were performed as previously described ([20]).
(§2) Figure 4 ART631 elevated ROS and CHOP levels and reduced MCL1 expression in MOLM14 AML cells. (A) MOLM14 AML cells were pre-treated with ROS detection reagent CM-H2DCFDA (5 mM) for 30 min, pre-treated with deferoxamine mesylate (DFO; 11 mM) for 60 min, and then treated with ART631 (200 nM) or DMSO control for 18h. They were then analyzed by flow cytometry. Graph represents %CM-H2DCFDA fluorescence compared to vehicle (DMSO) control treated cells. Error bars represent SD from 3 independent experiments. (B) MOLM14 AML cells were treated for 18h with vehicle, AS (10 uM), ART838 (200 nM), ART631 (200 nM), cytarabine (AraC; 150 nM), or SOR (5 uM). Protein was isolated and western blotted for MCL1, BCL2, CHOP, and β-actin. (C) MOLM14 cells were treated as in (B) for 18h, total RNA isolated, cDNA synthesized, and SYBR Green qRT-PCR performed in triplicates. Ct values were normalized to housekeeping gene GAPDH and fold change shown relative to vehicle (DMSO) control. Error bars represent SD from 3 independent experiments done in triplicate.

K562 = experiment: alamarBlue growth inhibition, K562; format: cell-based; settings: Homo sapiens, K562, 48h, mean of 2 independent assays ± SD
Protocol: as §1

[3] = x5; cited from earlier work
THP1 = experiment: alamarBlue growth inhibition, THP1; format: cell-based; settings: Homo sapiens, THP-1, THP1, 48h, mean of 2 independent assays ± SD
Protocol: as §1

MOLM14 = experiment: alamarBlue growth inhibition, MOLM14; format: cell-based; settings: Homo sapiens, MOLM-14, 48 h
Protocol: as §1
In this experiment, provided to show the entire concentration:response range, MOLM14 AML cells were cultured with a range of concentrations of artesunate (AS), ART838, ART631, and ART576 for 48h. Graph indicates growth inhibition relative to vehicle (DMSO)-treated controls by alamarBlue absorbance assays. Data points and error bars represent mean and SD of 3 independent experiments done in triplicate.

KG1a = experiment: alamarBlue growth inhibition, KG1a; format: cell-based; settings: Homo sapiens, KG-1a, 48h, mean of 2 independent assays ± SD
Protocol: as §1

ML2 = experiment: alamarBlue growth inhibition, ML2; format: cell-based; settings: Homo sapiens, ML-2, ML2, 48h, mean of 2 independent assays ± SD
Protocol: as §1

HEL = experiment: alamarBlue growth inhibition, HEL; format: cell-based; settings: Homo sapiens, 48h, mean of 2 independent assays ± SD
Protocol: as §1

23 leukemia cell lines = settings: against 23 leukemia cell lines; cited from earlier work
MV4;11 = experiment: alamarBlue growth inhibition, MV4;11; format: cell-based; settings: Homo sapiens, MV4;11, 48h, mean of 2 independent assays ± SD
Protocol: as §1

MOLM14 cells = experiment: Total cellular ROS (CM-H2DCFDA flow cytometry); format: cell-based, human; settings: MOLM14, DFO 11 uM, 60 min pre-treatment
Protocol: […] Cells were then treated with ART631 (200 nM) or DMSO control for 18h, with subsequent analysis by flow cytometry. Western blotting and quantitative reverse transcription PCR (qRT-PCR) to assess for molecular markers of ROS-mediated apoptosis were performed as previously described ([20]).
as §2, with “(A) MOLM14 AML cells were pre-treated with ROS detection reagent CM-H2DCFDA (5 mM) for 30 min, pre-treated with deferoxamine mesylate (DFO; 11 mM) for 60 min, and then treated with ART631 (200 nM) or DMSO control for 18h.” left out

**Q.** With `CNC(=O)c1cc(Oc2ccc(NC(=O)Nc3ccc(Cl)c(C(F)(F)F)c3)cc2)ccn1` [SOR, sorafenib] as the molecule, how does the “cell death as single agents” value [1] read?
**A.** less than 15%

**Q.** Which results are given for `C[C@@H]1CCC2[C@@H](C)[C@@H](CC(COP(=O)(Oc3ccccc3)Oc3ccccc3)C[C@H]3O[C@@H]4O[C@@]5(C)CCC6[C@H](C)CCC([C@H]3C)[C@]64OO5)O[C@@H]3O[C@@]4(C)CCC1[C@@]23OO4` (stereo partly shown) [ART838, reference compound]?
**A.** IC50 (U937): 22 ± 3 nM; degradation (stability) [2]: ≤ 20%; survival versus vehicle (AML45 PDX): did not reach statistical significance; IC50 (HL60): 45 ± 3 nM; IC50 (10 human AML cell lines; Homo sapiens, read-out: IC50 range): 22 to 112 nM; number of human AML cell lines whose growth was inhibited (10 human AML cell lines; of 10 human AML cell lines tested): 9; IC50 (TF1): 36 ± 3 nM; DDIT3 mRNA (DDIT3): increased; IC50 (K562): > 1000 nM; multiple day MTD regimen [3]: 50 mg/kg/day; IC50 (THP1): 45 ± 3 nM; IC50 (MOLM14): 28 ± 3 nM; IC50 (KG1a): 112 ± 7 nM; IC50 (ML2): 40 ± 5 nM; IC50 (HEL): 72 ± 6 nM; fold more potent than artesunate (AS) (23 leukemia cell lines): 88 fold; IC50 (MV4;11): 28 ± 1 nM

**Q.** With `CC(=O)N(O)CCCCCNC(=O)CCC(=O)N(O)CCCCCNC(=O)CCC(=O)N(O)CCCCCN` [deferoxamine mesylate, reference compound] as the molecule, how does the “effect of pre-treatment on ROS generation by ART631” value (MOLM14 cells) read?
**A.** diminished
